How the values were obtained:
human orexin receptor 1 = human orexin receptor 1 (Homo sapiens (Human), UniProt O43613); assay: Orexin antagonist activity, intracellular calcium FLIPR assay, RBL-2H3 cells expressing human orexin receptor 1; type: cell-based; settings: RBL-2H3 cells stably expressing human orexin receptor 1; orexin-A at approx. 80% maximal response; compound added 15 minutes before; read-out: Human Orexin1R IC50
human orexin receptor 2 = human orexin receptor 2 (Homo sapiens (Human), UniProt O43614); assay: Orexin antagonist activity, intracellular calcium FLIPR assay, RBL-2H3 cells expressing human orexin receptor 2; type: cell-based; settings: RBL-2H3 cells stably expressing human orexin receptor 2; orexin-A at approx. 80% maximal response; compound added 15 minutes before; read-out: Human Orexin2R IC50
Chain of human orexin receptor 2 (O43614 whole entry): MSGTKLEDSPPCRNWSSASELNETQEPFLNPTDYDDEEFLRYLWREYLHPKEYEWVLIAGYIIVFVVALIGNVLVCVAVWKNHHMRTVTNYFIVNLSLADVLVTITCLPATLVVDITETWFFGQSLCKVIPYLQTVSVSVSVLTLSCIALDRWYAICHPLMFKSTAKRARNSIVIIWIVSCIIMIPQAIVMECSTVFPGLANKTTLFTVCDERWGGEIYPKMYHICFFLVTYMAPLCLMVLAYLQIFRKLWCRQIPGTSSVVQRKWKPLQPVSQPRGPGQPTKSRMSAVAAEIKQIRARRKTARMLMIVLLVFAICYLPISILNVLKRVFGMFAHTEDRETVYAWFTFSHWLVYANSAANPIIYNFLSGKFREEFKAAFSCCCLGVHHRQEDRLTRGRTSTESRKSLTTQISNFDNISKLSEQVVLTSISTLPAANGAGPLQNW

Chain of human orexin receptor 1 (O43613 whole entry): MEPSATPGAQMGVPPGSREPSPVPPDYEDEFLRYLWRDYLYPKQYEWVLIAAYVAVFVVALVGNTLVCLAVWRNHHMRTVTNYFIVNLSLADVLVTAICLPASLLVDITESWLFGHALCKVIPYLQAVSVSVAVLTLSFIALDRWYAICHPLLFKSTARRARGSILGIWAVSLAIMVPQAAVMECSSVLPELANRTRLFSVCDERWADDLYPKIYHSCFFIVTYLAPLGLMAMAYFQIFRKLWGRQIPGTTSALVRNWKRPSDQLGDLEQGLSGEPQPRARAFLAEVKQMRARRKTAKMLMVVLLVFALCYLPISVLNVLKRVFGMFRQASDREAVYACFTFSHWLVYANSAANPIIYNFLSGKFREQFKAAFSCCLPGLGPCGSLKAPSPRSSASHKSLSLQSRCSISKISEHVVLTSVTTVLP

Structure (SMILES) | IC50 (human orexin receptor 1) | IC50 (human orexin receptor 2)
O=C(NC1CCCC1Cc1cc(C(F)(F)F)ccn1)c1ccccc1-n1nccn1 (single isomer, unassigned) [Example 23, 2-(2H-1,2,3-Triazol-2-yl)-N-(2-{[4-(trifluoromethyl)pyridin-2-yl]methyl}cyclopentyl)benzamide] | 792 nM | 3800 nM
O=C(NC1CC(F)(F)CC1Nc1cnc(C(F)(F)F)cn1)c1ccccc1-n1nccn1 (single isomer, unassigned) [Example 130, N-(4,4-Difluoro-2-{[5-(trifluoromethyl)pyrazin-2-yl]amino}cyclopentyl)-2-(2H-1,2,3-triazol-2-yl)benzamide] | 77 nM | –
COc1cccc(OC)c1C(=O)N[C@H]1CCC[C@@H]1Nc1ncc(C(F)(F)F)cn1 [Example 2, 2,6-Dimethoxy-N-[(1S,2S)-2-{[5-(trifluoromethyl)pyrimidin-2-yl]amino}cyclopentyl]benzamide] | 870 nM | > 10000 nM
CCc1cnc(N[C@H]2CCC[C@@H]2NC(=O)c2cc(C)ccc2-n2nccn2)nc1 [Example 4, N-[(1S,2S)-2-[(5-Ethylpyrimidin-2-yl)amino]cyclopentyl]-5-methyl-2-(2H-1,2,3-triazol-2-yl)benzamide] | 520 nM | > 10000 nM
Cc1ccc(-n2nccn2)c(C(=O)N[C@H]2CCC[C@@H]2Nc2ccc(C(F)(F)F)cn2)c1 [Example 6, 5-Methyl-2-(2H-1,2,3-triazol-2-yl)-N-[(1S,2S)-2-{[5-(trifluoromethyl)pyridin-2-yl]amino}cyclopentyl]benzamide] | 51 nM | > 10000 nM
Cc1ccc(-n2nccn2)c(C(=O)N[C@H]2CCC[C@@H]2Nc2cnc(C(F)(F)F)cn2)c1 [Example 7, 5-Methyl-2-(2H-1,2,3-triazol-2-yl)-N-[(1S,2S)-2-{[5-(trifluoromethyl)pyrazin-2-yl]amino}cyclopentyl]benzamide] | 51 nM | > 10000 nM
Cc1ccc(-n2nccn2)c(C(=O)N[C@H]2CCC[C@@H]2Nc2cnc(Cl)cn2)c1 [Example 9, N-[(1S,2S)-2-[(5-Chloropyrazin-2-yl)amino]cyclopentyl]-5-methyl-2-(2H-1,2,3-triazol-2-yl)benzamide] | 340 nM | > 10000 nM
O=C(N[C@H]1CCC[C@@H]1Nc1ccc(C(F)(F)F)cn1)c1ccccc1-n1cccn1 [Example 11, 2-(1H-Pyrazol-1-yl)-N-[(1S,2S)-2-{[5-(trifluoromethyl)pyridin-2-yl]amino}cyclopentyl]benzamide] | 170 nM | > 10000 nM
O=C(N[C@H]1CCC[C@@H]1Nc1ccc(C(F)(F)F)cn1)c1ccccc1-n1nccn1 [Example 12, 2-(2H-1,2,3-Triazol-2-yl)-N-[(1S,2S)-2-{[5-(trifluoromethyl)pyridin-2-yl]amino}cyclopentyl]benzamide] | 65 nM | > 10000 nM
O=C(N[C@H]1CCC[C@@H]1Nc1ccc(C(F)(F)F)cn1)c1ccccc1-c1ncccn1 [Example 13, 2-(Pyrimidin-2-yl)-N-[(1S,2S)-2-{[5-(trifluoromethyl)pyridin-2-yl]amino}cyclopentyl]benzamide] | 99 nM | > 10000 nM
Cc1noc(-c2ccccc2C(=O)N[C@H]2CCC[C@@H]2Nc2cnc(C(F)(F)F)cn2)n1 [Example 15, 2-(3-Methyl-1,2,4-oxadiazol-5-yl)-N-[(1S,2S)-2-{[5-(trifluoromethyl)pyrazin-2-yl]amino}cyclopentyl]benzamide] | 49 nM | > 10000 nM
Cc1noc(-c2ccccc2C(=O)N[C@H]2CCC[C@@H]2Nc2ncc(C(F)(F)F)cn2)n1 [Example 16, 2-(3-Methyl-1,2,4-oxadiazol-5-yl)-N-[(1S,2S)-2-{[5-(trifluoromethyl)pyrimidin-2-yl]amino}cyclopentyl]benzamide] | 54 nM | > 10000 nM

Continued by falling IC50 (human orexin receptor 1), values first:

IC50 (human orexin receptor 1) | IC50 (human orexin receptor 2) | Structure (SMILES)
633 nM | 8750 nM | O=C(NC1CC(F)(F)CC1Nc1ccc(C(F)(F)F)cn1)c1ccccc1-n1nccn1 (single isomer, unassigned) [Example 129, N-(4,4-Difluoro-2-{[5-(trifluoromethyl)pyridin-2-yl]amino}cyclopentyl)-2-(2H-1,2,3-triazol-2-yl)benzamide]
472 nM | > 10000 nM | O=C(NC1CCCC1Cc1ccc(C(F)(F)F)cn1)c1ccccc1-n1nccn1 (single isomer, unassigned) [Example 25, 2-(2H-1,2,3-Triazol-2-yl)-N-(2-{[5-(trifluoromethyl)pyridin-2-yl]methyl}cyclopentyl)benzamide]
240 nM | > 10000 nM | COc1cccc(OC)c1C(=O)N[C@H]1CCC[C@@H]1Nc1ccc(C(F)(F)F)cn1 [Example 1, 2,6-Dimethoxy-N-[(1S,2S)-2-{[5-(trifluoromethyl)pyridin-2-yl]amino}cyclopentyl]benzamide]
110 nM | > 10000 nM | Cc1noc(-c2ccccc2C(=O)N[C@H]2CCC[C@@H]2Nc2ccc(C(F)(F)F)cn2)n1 [Example 8, 2-(3-Methyl-1,2,4-oxadiazol-5-yl)-N-[(1S,2S)-2-{[5-(trifluoromethyl)pyridin-2-yl]amino}cyclopentyl]benzamide]
89 nM | > 10000 nM | O=C(N[C@H]1CCC[C@@H]1Nc1ccc(C(F)(F)F)cn1)c1cc(F)ccc1-c1ncccn1 [Example 14, 5-Fluoro-2-(pyrimidin-2-yl)-N-[(1S,2S)-2-{[5-(trifluoromethyl)pyridin-2-yl]amino}cyclopentyl]benzamide]
68 nM | > 10000 nM | O=C(NC1CC(F)(F)CC1Nc1ncc(C(F)(F)F)cn1)c1ccccc1-n1nccn1 (single isomer, unassigned) [Example 127, N-(4,4-Difluoro-2-{[5-(trifluoromethyl)pyrimidin-2-yl]amino}cyclopentyl)-2-(2H-1,2,3-triazol-2-yl)benzamide]
59 nM | > 10000 nM | O=C(N[C@H]1CCC[C@@H]1Nc1ccc(C(F)(F)F)cn1)c1cc(F)ccc1-n1nccn1 [Example 10, 5-Fluoro-2-(2H-1,2,3-triazol-2-yl)-N-[(1S,2S)-2-{[5-(trifluoromethyl)pyridin-2-yl]amino}cyclopentyl]benzamide]
58 nM | > 10000 nM | Cc1ccc(-n2nccn2)c(C(=O)N[C@H]2CCC[C@@H]2Nc2ncc(C(F)(F)F)cn2)c1 [Example 3, 5-Methyl-2-(2H-1,2,3-triazol-2-yl)-N-[(1S,2S)-2-{[5-(trifluoromethyl)pyrimidin-2-yl]amino}cyclopentyl]benzamide]
53 nM | > 10000 nM | O=C(N[C@H]1CCC[C@@H]1Nc1cnc(C(F)(F)F)cn1)c1ccccc1-n1nccn1 [Example 17, 2-(2H-1,2,3-Triazol-2-yl)-N-[(1S,2S)-2-{[5-(trifluoromethyl)pyrazin-2-yl]amino}cyclopentyl]benzamide]
33 nM | > 10000 nM | O=C(NC1CC(F)(F)CC1Nc1ccc(C(F)(F)F)cn1)c1ccccc1-n1nccn1 (single isomer, unassigned) [Example 128, N-(4,4-Difluoro-2-{[5-(trifluoromethyl)pyridin-2-yl]amino}cyclopentyl)-2-(2H-1,2,3-triazol-2-yl)benzamide]
28 nM | > 10000 nM | CC1(Nc2ncc(C(F)(F)F)cn2)CCCC1NC(=O)c1ccccc1-n1nccn1 (single isomer, unassigned) [Example 94, N-(2-Methyl-2-{[5-(trifluoromethyl)pyrimidin-2-yl]amino}cyclopentyl)-2-(2H-1,2,3-triazol-2-yl)benzamide]
